Test results reported in US6706664B1, “Benzoxazole compounds, process for the preparation thereof and herbicides” (UBE Industries, Ltd., priority 1999, dated 2004).

Assays:
Parameters in all cases: key: 0: normal development; 1: Less damaged; 2: Slightly damaged; 3: Moderately damaged; 4: Severely damaged; 5: All killed
barnyardgrass [1] = assay: Herbicidal test for paddy field; format: in vivo, Echinochloa crusgalli; conditions: paddy field pot, 500 g/ha dropwise at 1.5 leaf stage of barnyardgrass, 3 weeks, rank vs non-treated
Procedure, shortened: (§1)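 Post-flooding water application of 500 g/ha, given at 1.5-leaf barnyardgrass, to plants in Ube alluvial soil held under 3 cm of water. Ratings of 0 to 5 relative to untreated controls were made after three weeks in a glasshouse.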

Large crabgrass [2] = assay: Soil treatment test for upland field; format: in vivo, Digitaria adscendens; conditions: 500 g/ha, glass house 25° C., 3 weeks
Procedure, shortened: (§2)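 Pre-emergence: seeds sown in Ube alluvial soil in pots, then soil surface sprayed with wettable-powder formulation diluted in water with 0.05% surfactant at 500 g/ha. Plants kept in glasshouse at average 25° C for 3 weeks; injury scored 0 (normal) to 5 (all killed).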

flat sedge = assay: Herbicidal test for paddy field; format: in vivo, Cyperus serotinus; conditions: paddy field pot, 500 g/ha dropwise at 1.5 leaf stage of barnyardgrass, 3 weeks, rank vs non-treated
Procedure, shortened: as §1

barnyardgrass [3] = assay: Foliar spread test for upland field; format: in vivo, Echinochloa crusgalli; conditions: foliar spray 500 ppm, 3 weeks, rank vs non-treated
Procedure, shortened: (§3)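 Seeds are planted in pots of volcanic ash soil and grown roughly 2 weeks under glass. Foliage then receives a uniform spray of compound at 500 ppm in water with 0.5% surfactant. Herbicidal damage is rated 0–5 after 3 weeks at an average 25° C.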

bulrush = assay: Herbicidal test for paddy field; format: in vivo, Scrips juncoides; conditions: paddy field pot, 500 g/ha dropwise at 1.5 leaf stage of barnyardgrass, 3 weeks, rank vs non-treated
Procedure, shortened: as §1

livid amaranth = assay: Foliar spread test for upland field; format: in vivo, Amaranthus lividus; conditions: foliar spray 500 ppm, 3 weeks, rank vs non-treated
Procedure, shortened: as §3

common lambsquartes = assay: Foliar spread test for upland field; format: in vivo, Chenopodium album; conditions: foliar spray 500 ppm, 3 weeks, rank vs non-treated
Procedure, shortened: as §3

velvetleaf [4] = assay: Foliar spread test for upland field; format: in vivo, Abutilon theophrasti; conditions: foliar spray 500 ppm, 3 weeks, rank vs non-treated
Procedure, shortened: as §3

barnyardgrass [5] = assay: Soil treatment test for upland field; format: in vivo, Echinochloa crusgalli; conditions: 500 g/ha, glass house 25° C., 3 weeks
Procedure, shortened: as §2

annual bluegrass = assay: Foliar spread test for upland field; format: in vivo, Poa annua; conditions: foliar spray 500 ppm, 3 weeks, rank vs non-treated
Procedure, shortened: as §3

velvetleaf [6] = assay: Soil treatment test for upland field; format: in vivo, Abutilon theophrasti; conditions: 500 g/ha, glass house 25° C., 3 weeks
Procedure, shortened: as §2

cotton = assay: Foliar spread test for upland field; format: in vivo; conditions: foliar spray 500 ppm, 3 weeks, rank vs non-treated
Procedure, shortened: (§4)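 Crops and weeds grown about 2 weeks in volcanic ash soil in a glasshouse, then sprayed with wettable-powder formulations diluted to 500 ppm in water with 0.5% surfactant. After 3 weeks at 25 °C, injury scored visually 0 (normal) to 5 (all killed).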

soybean = assay: Foliar spread test for upland field; format: in vivo; conditions: foliar spray 500 ppm, 3 weeks, rank vs non-treated
Procedure, shortened: as §4

blackgrass = assay: Soil treatment test for upland field; format: in vivo, Alopecurus aegualis; conditions: 500 g/ha, glass house 25° C., 3 weeks
Procedure, shortened: as §2

Large crabgrass [7] = assay: Foliar spread test for upland field; format: in vivo, Digitaria adscendens; conditions: foliar spray 500 ppm, 3 weeks, rank vs non-treated
Procedure, shortened: as §3

Structure (SMILES) | Effect Barnyardgrass (barnyardgrass [1]) | Effects Large crabgrass (Large crabgrass [2]) | Effect Flat sedge (flat sedge) | Effects Barnyardgrass (barnyardgrass [3]) | Effect Bulrush (bulrush) | Effects Livid amaranth (livid amaranth) | Effects Common lambsquarters (common lambsquartes) | Effects Velvetleaf (velvetleaf [4]) | Effects Barnyardgrass (barnyardgrass [5]) | Effects Annual bluegrass (annual bluegrass) | Effects Velvetleaf (velvetleaf [6]) | Effects Cotton (cotton) | Effects Soybean (soybean) | Effects Blackgrass (blackgrass) | Effects Large crabgrass (Large crabgrass [7])
CCC(Oc1cccc(OC(F)(F)F)c1)c1nc2cc([N+](=O)[O-])ccc2o1 (stereo not drawn) [Compound 450] | 4 | 5 | 3 | 3 | 4 | 4 | 4 | 3 | 5 | 4 | 5 | 5 | 4 | 5 | 4
CCCC(Oc1cccc(C(F)(F)F)c1)c1nc2cc(C#N)ccc2o1 (stereo not drawn) [Compound 192] | 5 | 5 | 4 | 2 | 4 | 4 | 4 | 3 | 3 | 4 | 5 | 3 | 3 | 5 | 3
CCC(Oc1ccc(F)c(C(F)(F)F)c1)c1nc2cc(F)c(F)cc2o1 (stereo not drawn) [Compound 284] | 4 | 5 | 4 | 1 | 4 | 5 | 4 | 2 | 5 | 3 | 5 | 3 | 5 | 5 | 4
CCC(Oc1ccc(F)c(C(F)(F)F)c1)c1nc2cc(Cl)c(C)cc2o1 (stereo not drawn) [Compound 340] | 5 | 5 | 2 | 2 | 4 | 4 | 4 | 4 | 4 | 3 | 5 | 3 | 3 | 4 | 4
